Values of other authors, collected in patent US20030125243A1, “Synthesis of cyclic peptides” (priority 2000, published 2003).

Molecular target: αvβ3 (Homo sapiens, UniProt P05106+P06756)
Conditions: background statement, Haubner et al. 1996

Sequence of αvβ3 (P06756 31-889 limits assumed): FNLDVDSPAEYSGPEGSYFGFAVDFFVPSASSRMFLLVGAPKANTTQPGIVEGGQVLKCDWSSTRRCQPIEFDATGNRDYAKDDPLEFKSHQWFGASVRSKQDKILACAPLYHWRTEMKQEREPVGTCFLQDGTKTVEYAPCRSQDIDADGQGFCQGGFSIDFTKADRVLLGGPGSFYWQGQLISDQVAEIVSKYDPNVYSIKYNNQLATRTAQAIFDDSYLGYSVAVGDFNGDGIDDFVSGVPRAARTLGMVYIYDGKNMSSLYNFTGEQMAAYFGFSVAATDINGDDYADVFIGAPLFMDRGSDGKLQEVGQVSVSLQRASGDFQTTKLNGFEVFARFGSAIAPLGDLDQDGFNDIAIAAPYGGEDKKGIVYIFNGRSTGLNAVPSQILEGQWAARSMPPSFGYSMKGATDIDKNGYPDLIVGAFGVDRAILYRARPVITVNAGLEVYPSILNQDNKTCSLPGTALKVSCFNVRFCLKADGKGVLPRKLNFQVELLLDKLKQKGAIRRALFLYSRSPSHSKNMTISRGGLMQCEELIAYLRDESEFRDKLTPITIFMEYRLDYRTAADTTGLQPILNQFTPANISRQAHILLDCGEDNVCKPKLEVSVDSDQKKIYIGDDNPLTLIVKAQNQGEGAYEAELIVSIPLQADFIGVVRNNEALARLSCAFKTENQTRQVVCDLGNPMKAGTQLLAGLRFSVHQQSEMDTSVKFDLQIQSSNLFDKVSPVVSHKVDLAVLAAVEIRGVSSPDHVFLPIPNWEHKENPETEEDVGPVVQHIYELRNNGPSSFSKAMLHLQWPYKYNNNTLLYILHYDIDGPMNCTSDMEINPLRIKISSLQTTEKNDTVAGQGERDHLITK
Sequence of αvβ3 (P06756 891-1048 partner limits assumed): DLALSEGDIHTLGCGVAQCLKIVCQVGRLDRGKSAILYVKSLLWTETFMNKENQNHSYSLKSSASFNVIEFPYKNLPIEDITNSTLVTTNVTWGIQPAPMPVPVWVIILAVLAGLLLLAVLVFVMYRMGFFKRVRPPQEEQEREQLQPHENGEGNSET
Sequence of αvβ3 (P05106 27-788): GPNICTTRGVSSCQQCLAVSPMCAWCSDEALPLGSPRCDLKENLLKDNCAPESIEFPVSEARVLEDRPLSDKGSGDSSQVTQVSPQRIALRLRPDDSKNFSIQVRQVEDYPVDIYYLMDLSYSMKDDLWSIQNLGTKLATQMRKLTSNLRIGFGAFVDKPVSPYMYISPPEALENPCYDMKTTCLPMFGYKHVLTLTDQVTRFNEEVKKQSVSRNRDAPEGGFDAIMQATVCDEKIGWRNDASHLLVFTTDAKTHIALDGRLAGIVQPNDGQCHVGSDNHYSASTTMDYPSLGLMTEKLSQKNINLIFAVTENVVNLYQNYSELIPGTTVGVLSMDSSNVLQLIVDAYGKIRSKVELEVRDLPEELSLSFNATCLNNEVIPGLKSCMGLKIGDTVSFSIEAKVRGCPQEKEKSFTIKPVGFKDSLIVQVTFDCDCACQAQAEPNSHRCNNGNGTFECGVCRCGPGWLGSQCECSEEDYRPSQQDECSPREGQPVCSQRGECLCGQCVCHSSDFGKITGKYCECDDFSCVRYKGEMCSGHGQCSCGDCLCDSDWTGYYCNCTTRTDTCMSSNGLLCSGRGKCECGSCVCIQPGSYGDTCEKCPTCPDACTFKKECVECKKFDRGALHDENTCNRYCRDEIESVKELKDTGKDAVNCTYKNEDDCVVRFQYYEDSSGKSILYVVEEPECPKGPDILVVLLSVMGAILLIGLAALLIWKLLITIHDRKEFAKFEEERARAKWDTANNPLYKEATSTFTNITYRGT

## cRGDfK
  binding to αvβ3 (potency and selectivity): high potency and selectivity
